How the values were obtained:
A375 cells = experiment: Assay 1: A375 cells treated with S1152, S1008 and compound, immunofluorescence (sc-365823) signal; format: cell-based; details: 1 μM S1152 + 0.5 μM S1008, one day
How it was run: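 A375 cells treated one day with 1 μM S1152, 0.5 μM S1008 and compound dose ranges in DMEM/10% FCS, then fixed, permeabilised and immunostained. Green signal normalised to nuclear counterstain (ethidium-type or DAPI), log ratio fitted by four-parameter regression for EC50.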

OPM-2 = experiment: Assay 2: multiple myeloma cellular efficacy, PrestoBlue cell proliferation/survival; format: cell-based; details: Homo sapiens, 96 h, OPM-2 cells, 4 days
How it was run: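 Cells seeded at 10000/well and exposed to a compound dose range or vehicle for 4 days, then stained with PrestoBlue for 2 h at 37 °C. Fluorescence was background-subtracted and normalized to vehicle; EC50 came from a four-parameter variable-slope fit against log concentration.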

CBP Bromodomain = biological target: T1, CBP Bromodomain (Homo sapiens, UniProt Q92793); experiment: Assay 3: CBP bromodomain binding assay (TR-FRET)
T1 construct: purchased Cayman chemicals 600850
T1 sequence (Q92793 1085-1192 limits assumed): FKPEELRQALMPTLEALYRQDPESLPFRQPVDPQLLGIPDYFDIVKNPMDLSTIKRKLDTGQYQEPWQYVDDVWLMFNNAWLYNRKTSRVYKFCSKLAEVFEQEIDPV
Description: Assay 3 CBP Bromodomain Binding Assay (TR-FRET)
Compounds solutions of 10 mM in DMSO were pre-diluted in DSMO to 25× stock solutions in DMSO. These were then diluted down to 4× in assay buffer. A dilution series in assay buffer was performed keeping the DMSO concentration stable. 5 μl compound in assay buffer was transferred into the assay plate (provided by assay kit) and the TR-FRET assay Cayman chemicals; 600850) was performed using the manufactor's instructions. After 1 hour incubation at room temperature in the darks, assay plates were read in a Tecan M1000 plate reader or a Tecan Spaks reader using the TR-FRET mode (top read; excitation 340 nm bandwidth […]; emission 620 nm bandwidth […]; gain optimal determined for the first well, number of flashes: 5; flash frequency 100 Hz; integration time: 500 μs, lag time: 100 μs, room temperature). The TR-FRET ratio was calculated by deviding 670 nm emission by 620 nm emission. Values were log transformed and non-linear regression with variable slope (4 parameters) was used to fit values to a dose-response curve to evaluate EC50 values.

With `CC(=O)N1C[C@H](c2nc(Nc3ccccc3)cc(-c3cncnc3)n2)CC[C@@H]1C` (racemic) [Compound 00072, (+/−)-cis-1-(2-methyl-5-(6-(phenylamino)-[4,5′-bipyrimidin]-2-yl)piperidin-1-yl)ethan-1-one] the EC50 (A375 cells) was 200 to 1000 nM, the EC50 (OPM-2) was 200 to 1000 nM and the EC50 (CBP Bromodomain) was 200 to 1000 nM.

In the case of `CC(=O)N1C[C@H](c2nc(Nc3ccccc3)cc(-c3cncc4[nH]ccc34)n2)CC[C@@H]1C` (racemic) [Compound 00073, (+/−)-c/s-1-(2-methyl-5-(4-(phenylamino)-6-(1H-pyrrolo[2,3-c]pyridin-4-yl)pyrimidin-2-yl)piperidin-1-yl)ethan-1-one], the EC50 (A375 cells) is reported as under 200 nM, the EC50 (OPM-2) is reported as under 200 nM and the EC50 (CBP Bromodomain) is reported as under 200 nM.

`CC(=O)N1C[C@H](c2nc(Nc3ccncc3)cc(-c3cccnc3)n2)CC[C@@H]1C` (racemic) [Compound 00101, (+/−)-c/s-1-(2-methyl-5-(4-(pyridin-3-yl)-6-(pyridin-4-ylamino)pyrimidin-2-yl)piperidin-1-yl)ethan-1-one] showed an EC50 (A375 cells) of 200 to 1000 nM and an EC50 (CBP Bromodomain) of 200 to 1000 nM.

Work on `CC(=O)N1C[C@H](c2nc(Nc3cncc(C)c3)cc(-c3cnccn3)n2)CC[C@@H]1C` [Compound 00001, 1-((2S,5R)-2-methyl-5-(4-((5-methylpyridin-3-yl)amino)-6-(pyrazin-2-yl)pyrimidin-2-yl)piperidin-1-yl)ethan-1-one] yielded an EC50 (A375 cells) of under 200 nM and an EC50 (CBP Bromodomain) of under 200 nM.

Work on `CC(=O)N1C[C@H](c2nc(Nc3cncc(C)c3)cc(-c3cccnc3)n2)CC[C@@H]1C` [Compound 00009] yielded an EC50 (A375 cells) of under 200 nM, an EC50 (OPM-2) of 200 to 1000 nM and an EC50 (CBP Bromodomain) of under 200 nM.

With `CC(=O)N1C[C@H](c2nc(Nc3ccc4nccn4c3)cc(-c3cccnc3)n2)CC[C@@H]1C` [Compound 00013, 1-((2S,5R)-5-(4-(imidazo[1,2-a]pyridin-6-ylamino)-6-(pyridin-3-yl)pyrimidin-2-yl)-2-methylpiperidin-1-yl)ethan-1-one] the EC50 (A375 cells) was 1000 to 10000 nM and the EC50 (CBP Bromodomain) was 200 to 1000 nM.

Work on `CC(=O)N1C[C@H](c2nc(Nc3ccc4[nH]ncc4c3)cc(-c3cccnc3)n2)CC[C@@H]1C` [Compound 00030, 1-((2S,5R)-5-(4-((1H-indazol-5-yl)amino)-6-(pyridin-3-yl)pyrimidin-2-yl)-2-methylpiperidin-1-yl)ethan-1-one] yielded an EC50 (A375 cells) of under 200 nM and an EC50 (CBP Bromodomain) of 200 to 1000 nM.

For `CC(=O)N1C[C@H](c2nc(Nc3cc(F)cc(C(=O)N(C)C)c3)cc(-c3cccnc3)n2)CC[C@@H]1C` [Compound 00038, 3-((2-((3R,6S)-1-acetyl-6-methylpiperidin-3-yl)-6-(pyridin3-yl)pyrimidin-4-yl)amino)-5-fluoro-N,N-dimethylbenzamide], the EC50 (A375 cells) was 200 to 1000 nM and the EC50 (CBP Bromodomain) was 200 to 1000 nM.

In the case of `CC(=O)N1C[C@H](c2nc(Nc3cccc(C(F)F)c3)cc(-c3cccnc3)n2)CC[C@@H]1C` [Compound 00039, 1-((2S,5R)-5-(4-((3-(difluoromethyl)phenyl)amino)-6-(pyridin-3-yl)pyrimidin-2-yl)-2-methylpiperidin-1-yl)ethan1-one], the EC50 (A375 cells) is reported as under 200 nM, the EC50 (OPM-2) is reported as under 200 nM and the EC50 (CBP Bromodomain) is reported as 200 to 1000 nM.

`CC(=O)N1C[C@H](c2nc(Nc3cc(F)c4cn[nH]c4c3)cc(-c3cccnc3)n2)CC[C@@H]1C` [Compound 00040, 1-((2S,5R)-5-(4-((4-fluoro-1H-indazol-6-yl)amino)-6-(pyridin-3-yl)pyrimidin-2-yl)-2-methylpiperidin-1-yl)ethan-1-one] was tested, and the EC50 (A375 cells) was under 200 nM and the EC50 (CBP Bromodomain) was under 200 nM.

`CNC(=O)c1cc(F)cc(Nc2cc(-c3cccnc3)nc([C@@H]3CC[C@H](C)N(C(C)=O)C3)n2)c1` [Compound 00041, 3-((2-((3R,6S)-1-acetyl-6-methylpiperidin-3-yl)-6-(pyridin-3-yl)pyrimidin-4-yl)amino)-5-fluoro-N-methylbenzamide] showed an EC50 (A375 cells) of under 200 nM, an EC50 (OPM-2) of under 200 nM and an EC50 (CBP Bromodomain) of under 200 nM.

Compound `CC(=O)N1C[C@H](c2nc(Nc3cccc4[nH]ncc34)cc(-c3cccnc3)n2)CC[C@@H]1C` [Compound 00042, 1-((2S,5R)-5-(4-((1H-indazol-4-yl)amino)-6-(pyridin-3-yl)pyrimidin-2-yl)-2-methylpiperidin-1-yl)ethan-1-one] has an EC50 (A375 cells) of under 200 nM and an EC50 (CBP Bromodomain) of 200 to 1000 nM.

For `CC(=O)N1C[C@H](c2nc(Nc3cc(F)cc(-c4cnn(C)c4)c3)cc(-c3cccnc3)n2)CC[C@@H]1C` [Compound 00043, 1-((2S,5R)-5-(4-((3-fluoro-5-(1-methyl-1H-pyrazol-4-yl)phenyl)amino)-6-(pyridin-3-yl)pyrimidin-2-yl)-2-methylpiperidin-1-yl)ethan-1-one], the EC50 (A375 cells) was under 200 nM and the EC50 (CBP Bromodomain) was under 200 nM.

`CC(=O)N1C[C@H](c2nc(Nc3cc(F)cc(-c4cnoc4)c3)cc(-c3cccnc3)n2)CC[C@@H]1C` [Compound 00046, 1-((2S,5R)-5-(4-((3-fluoro-5-(isoxazol-4-yl)phenyl)amino)-6-(pyridin-3-yl)pyrimidin-2-yl)-2-methylpiperidin-1-yl)ethan-1-one] was tested, and the EC50 (A375 cells) was under 200 nM and the EC50 (CBP Bromodomain) was under 200 nM.

For `CC(=O)N1C[C@H](c2nc(Nc3ccnc(C)c3)cc(-c3cnccn3)n2)CC[C@@H]1C` [Compound 00126, 1-((2S,5R)-2-methyl-5-(4-((2-methylpyridin-4-yl)amino)-6-(pyrazin-2-yl)pyrimidin-2-yl)piperidin-1-yl)ethan-1-one], the EC50 (CBP Bromodomain) was under 200 nM.

`CC(=O)N1C[C@H](c2nc(Nc3ccnc(OC(C)C)c3)cc(-c3cnccn3)n2)CC[C@@H]1C` [Compound 00155, 1-((2S,5R)-5-(4-((2-isopropoxypyridin-4-yl)amino)-6-(pyrazin-2-yl)pyrimidin-2-yl)-2-methylpiperidin-1-yl)ethan-1-one] gave an EC50 (A375 cells) of 200 to 1000 nM and an EC50 (OPM-2) of 200 to 1000 nM.

Work on `CC(=O)N1C[C@H](c2nc(Nc3cc(F)ccn3)cc(-c3cnccn3)n2)CC[C@@H]1C` [Compound 00156, 1-((2S,5R)-5-(4-((4-fluoropyridin-2-yl)amino)-6-(pyrazin2-yl)pyrimidin-2-yl)-2-methylpiperidin-1-yl)ethan-1-one] yielded an EC50 (A375 cells) of 200 to 1000 nM and an EC50 (OPM-2) of 200 to 1000 nM.

Compound `CC(=O)N1C[C@H](c2nc(Nc3ccnc(-c4cnn(C5CC5)c4)c3)cc(-c3cccnc3)n2)CC[C@@H]1C` [Compound 00157, 1-((2S,5R)-5-(4-((2-(1-cyclopropyl-1H-pyrazol-4-yl)pyridin-4-yl)amino)-6-(pyridin-3-yl)pyrimidin-2-yl)-2-methylpiperidin-1-yl)ethan-1-one] has an EC50 (A375 cells) of under 200 nM and an EC50 (OPM-2) of under 200 nM.

`CCn1cc(-c2cc(Nc3cc(-c4cccnc4)nc([C@@H]4CC[C@H](C)N(C(C)=O)C4)n3)ccn2)cn1` [Compound 00158, 1-((2S-5R)-5-(4-((2-(1-ethyl-1H-pyrazol-4-yl)pyridin-4-yl)amino)-6-(pyridin-3-yl)pyrimidin-2-yl)-2-methylpiperidin-1-yl)ethan-1-one] gave an EC50 (A375 cells) of under 200 nM and an EC50 (OPM-2) of under 200 nM.

`CC(=O)N1C[C@H](c2nc(Nc3ccnc(-c4cnn(C5CCOCC5)c4)c3)cc(-c3cccnc3)n2)CC[C@@H]1C` [Compound 00159, 1-((2S-5R)-2-methyl-5-(4-(pyridin-3-yl)-6-((2-(1-(tetrahydro-2H-pyran-4-yl)-1H-pyrazol-4-yl)pyridin-4-yl)amino)pyrimidin-2-yl)piperidin-1-yl)ethan-1-one] showed an EC50 (A375 cells) of under 200 nM and an EC50 (OPM-2) of under 200 nM.

`COCCn1cc(-c2cc(Nc3cc(-c4cccnc4)nc([C@@H]4CC[C@H](C)N(C(C)=O)C4)n3)ccn2)cn1` [Compound 00160, 1-((2S,5R)-5-(4-((2-(1-(2-methoxyethyl)-1H-pyrazol-4-yl)pyridin-4-yl)amino)-6-(pyridin-3-yl)pyrimidin-2-yl)-2-methylpiperidin-1-yl)ethan-1-one] showed an EC50 (A375 cells) of 200 to 1000 nM and an EC50 (OPM-2) of 200 to 1000 nM.

`CC(=O)N1C[C@H](c2nc(Nc3cc(C)nc(-c4cnn(C)c4)c3)cc(-c3cccnc3)n2)CC[C@@H]1C` [Compound 00161, 1-((2S,5R)-2-methyl-5-(4-((2-methyl-6-(1-methyl-1H-pyrazol-4-yl)pyridin-4-yl)amino)-6-(pyridin-3-yl)pyrimidin-2-yl)piperidin-1-yl)ethan-1-one] showed an EC50 (A375 cells) of under 200 nM and an EC50 (OPM-2) of under 200 nM.

In the case of `CC(=O)N1C[C@H](c2nc(Nc3ccccc3)cc(-n3cnc(C)c3)n2)CC[C@@H]1C` [Compound 00163, 1-((2S,5R)-2-methyl-5-(4-(4-methyl-1H-imidazol-1-yl)-6-(phenylamino)pyrimidin-2-yl)piperidin-1-yl)ethan-1-one], the EC50 (A375 cells) is reported as 1000 to 10000 nM and the EC50 (CBP Bromodomain) is reported as 1000 to 10000 nM.

`C[C@H]1CC[C@@H](c2nc(Nc3cccc(F)c3)cc(-c3cccnc3)n2)CN1C(N)=O` [Compound 00165, (2S,5R)-5-(4-((3-fluorophenyl)amino)-6-(pyridin-3-yl)pyrimidin-2-yl)-2-methylpiperidine-1-carboxamide] gave an EC50 (A375 cells) of 1000 to 10000 nM and an EC50 (CBP Bromodomain) of 1000 to 10000 nM.

`CC(=O)N1C[C@H](c2nc(-c3cnccn3)cc(N(C)c3ccnc(C)c3)n2)CC[C@@H]1C` [Compound 00167, 1-((2S,5R)-2-methyl-5-(4-(methyl(2-methylpyridin-4-yl)amino)-6-(pyrazin-2-yl)pyrimidin-2-yl)piperidin-1-yl)ethan-1-one] showed an EC50 (A375 cells) of 200 to 1000 nM and an EC50 (OPM-2) of 1000 to 10000 nM.
